According to patent US8936793B2, “Synthetic archaeal glycolipid adjuvants” (National Research Council of Canada, priority 2006, dated 2015):

Legend:
[1] = incorporation of 36 mol % into archaeosomes; Sprott et al (23); cited from earlier work
[2] = system: anti-OVA antibody; assay: Anti-OVA IgG/IgM antibody titration in blood of immunized mice by ELISA; assay type: in vivo, C57BL/6 mice; details: for antigen-specific antibody response, FIG. 10B: gentiotriose archaeol/anionic lipid/cholesterol (35/35/30, mol %), 9 weeks
Experimental: (§1) To determine adjuvant activity, various synthetic archaeosomes with OVA entrapped (OVA-archaeosomes) were used to immunize female C57BL/6 mice on days 0 and 21 (6-8 weeks old on first injection). Injections were subcutaneous at the tail base with 0.1 ml PBS containing 15 μg OVA entrapped in 0.2-0.63 mg lipids. Blood samples were collected from the tail vein for anti-OVA IgG/IgM antibody titration done by ELISA (13). In some cases faecal extracts were assayed for IgA (and IgG) to assess mucosal responses following systemic immunizations. Fresh faeces (about 30 mg dry weight) were collected from 4 mice/group, and extracted by adding 0.5 ml of phosphate buffered saline (pH 7.0) containing 10% fetal calf serum and 0.1% sodium azide. Homogenized samples were centrifuged and Elisa measured anti OVA antibody in supernatants. Spleens were collected to determine CTL activity using the Cr^51-assay with specific and non-specific targets EG.7 and EL-4, respectively (14). In Elispot assays antigen-specific CD8^+ T cell activity was measured in splenic cells from immunized mice by determining the number of SIINFEKL stimulated IFN-γ-secreting cells per 5×10^5 splenic cells (15).

[3] = system: SIINFEKL stimulated IFN-γ-secreting cells; assay: Elispot assay of antigen-specific CD8+ T cell activity in splenic cells of immunized mice; assay type: in vivo, C57BL/6 mice; details: for antigen-specific CD8+ T cell response, Elispot, FIG. 10A: gentiotriose archaeol/anionic lipid/cholesterol (35/35/30, mol %), weeks 6 and 8; for CD8+ T cell adjuvant activity, Elispot, FIG. 7C: glyco-archaeol/DPPG/cholesterol (25/55/20, mol %)
Experimental: as §1, with “SIINFEKL” left out

[4] = system: antigen specific EG.7 targets; assay: CTL activity in splenocytes of immunized mice, Cr51-assay; assay type: in vivo, C57BL/6 mice; details: for CTL adjuvant activity, FIG. 7B: disaccharide-archaeol/DPPG/cholesterol (25/55/20, mol %), 12 weeks
Experimental: as §1

[5] = Archaeosome formation upon hydration and stability on storage (microscopic examination, size); assay type: physicochemical; details: lipid hydrated alone
Source text: Presence of a relationship was explored between adjuvant activity and the mol % of the active ingredient, β-D-Glc-(1,6)-β-D-Glc-archaeol, mixed with DPPG/cholesterol. Cholesterol was maintained constant at 20 mol % with DPPG added as required to balance increasing amounts of β-D-Glc-(1,6)-β-D-Glc-archaeol. […] Hydration became more difficult at 60 mol % D-Glc-(1,6)-β-D-Glc-archaeol, and archaeosomes with 60 mol % of the synthetic glyco-archaeol increased in size during the removal of unentrapped antigen indicating instability (Table 11). […] Immunized mice developed CD8^+ T cell immune responses that were best at 15-45 mol % Glc2-archaeol content (FIG. 5).
The need for cholesterol, and the optimal mol % cholesterol needed to achieve stability of archaeosomes containing 35 mol % D-Glc-(1,6)-β-D-Glc-archaeol was explored. Cholesterol was varied in each preparation from 0, 10, 20, 30 and 45 mol %. DPPG made up the balance of each preparation. Lipids were mixed in solvent and archaeosomes were loaded with the antigen OVA as described in methods. Archaeosomes formed in all cases upon hydrating at 35° C. However, when stored at refrigeration temperatures (4-6° C.) these synthetic archaeosomes with no cholesterol were unstable, converting to amorphous lipid debris and needle shaped crystals. This instability was avoided by inclusion of 10 mol % or more cholesterol. […] The optimal cholesterol was therefore in the range of >10 to <45 mol %.
Archaeosomes/liposomes were prepared by hydrating 20-30 mg lipids at 40° C. in 2 ml of PBS buffer (10 mM sodium phosphate, 160 mM NaCl, pH 7.1) or water with (Ag-loaded) or without (Ag-free) the test antigen OVA dissolved at 10 mg/ml. In some cases, cholesterol (Sigma), DPPS, DPPE, or DPPG (Avanti Polar Lipids) polar lipids were mixed in chloroform/methanol with the synthetic glyco-archaeols. […] Quantification of antigen loading was done by SDS polyacrylamide gel electrophoresis as described and based on salt corrected dry weights (27). Average diameters were determined by particle size analysis using a 5 mW He/Ne laser (Nicomp 370).

[6] = system: Listeria monocytogenes (LM)-OVA construct; assay: Protection against LM-OVA challenge after vaccination, splenic CFU; assay type: in vivo; details: glyco-archaeol/DPPG/chol (25/55/20, mol %), FIG. 13
Experimental: FIG. 13 illustrates protection against LM-OVA challenge after vaccination with OVA-adjuvant combinations. C57BL/6J mice were immunized on day 0 and 21 with 15 ug OVA entrapped in various synthetic archaeosomes composed of the respective synthetic glyco-archaeol/DPPG/chol (25/55/20, mol %). At 8 weeks, mice were challenged with 10^4 intravenous dose of Listeria monocytogenes (LM)-OVA construct. Mice were euthanized 3 days later. Mean±SEM of splenic colony forming units (CFU) is shown for each group.

[7] = system: B16OVA cells; assay: Skin melanoma solid tumor model, protection upon vaccination; assay type: in vivo, C57BL/6 mice; details: 5 mice/group, vaccinated s.c. with 15 μg OVA at 0 and 3 weeks, archaeal lipid/DPPG/cholesterol 25/55/20 mol %
Experimental: A skin melanoma solid tumor model was used in mice to evaluate protection achieved upon vaccination with synthetic archaeosomes. Mice were vaccinated subcutaneously with 15 μg OVA or synthetic archaeosome compositions containing 15 μg OVA at 0 and 3 weeks. Archaeosome lipid compositions were synthetic archaeal lipid/DPPG/cholesterol (25/55/20 mol %). At week 7 post first injection 5×10^6 B16OVA cells were injected subcutaneously in the shaved lower dorsal area. The time was recorded when solid tumours became evident.

CC(C)CCCC(C)CCCC(C)CCCC(C)CCOCC(CO[C@@H]1O[C@H](CO[C@@H]2O[C@H](CO)[C@@H](O)[C@H](O)[C@H]2O)[C@@H](O)[C@H](O)[C@H]1O)OCCC(C)CCCC(C)CCCC(C)CCCC(C)C (stereo partly drawn) [DGAs, β-D-Glc-(1,6)-β-D-Glc-archaeol]
adjuvant activity [1]: striking decline in adjuvant activity

CCCCCCCCCCCCCCCC(=O)OCC(COP(=O)(O)OCCN)OC(=O)CCCCCCCCCCCCCCC (stereo not drawn) [DPPE, reference compound]
antigen-specific antibody response, FIG. 10B [2]: equivalent in antibody response to archaeosomes containing archaetidylglycerol
antigen-specific CD8+ T cell response, Elispot, FIG. 10A [3]: relatively low CD8^+ T cell activity
Elispot activity as % of the activity found for DPPG ([3]; gentiotriose-archaeol/anionic lipid/cholesterol (35/35/30, mol %), 6 weeks, data not shown): 27%

CCCCCCCCCCCCCCCC(=O)OCC(COP(=O)(O)OCC(O)CO)OC(=O)CCCCCCCCCCCCCCC (stereo not drawn) [DPPG, dipalmitoylphosphatidylglycerol, reference compound]
antigen-specific CD8+ T cell response, Elispot, FIG. 10A [3]: transient

CC(C)CCC[C@@H](C)CCC[C@@H](C)CCC[C@@H](C)CCOC[C@H](CO[C@@H]1O[C@H](CO[C@@H]2O[C@H](CO)[C@@H](O)[C@H](O)[C@H]2O)[C@@H](O)[C@H](O)[C@H]1O)OCC[C@H](C)CCC[C@H](C)CCC[C@H](C)CCCC(C)C [Glc2-archaeol]
anti-OVA antibody response, FIG. 4B ([2]; 15 μg OVA s.c. 0 and 3 weeks, 6 and 11 weeks): dramatic increase
CD8+ T cell adjuvant activity, Elispot, FIG. 7C ([3]; 6 weeks): best
CTL response, FIG. 4A ([4]; 15 μg OVA s.c. 0 and 3 weeks, 6 weeks from first injection): dramatic increase
mol % Glc2-archaeol content at which CD8+ T cell immune responses were best ([4]; cholesterol 20 mol %, DPPG remainder, FIG. 5): 15-45 mol %
archaeosome formation upon hydration [5]: did not form readily

CC(C)CCC[C@@H](C)CCC[C@@H](C)CCC[C@@H](C)CCOC[C@H](CO[C@H]1O[C@H](CO)[C@@H](O)[C@H](O)[C@@H]1O)OCC[C@H](C)CCC[C@H](C)CCC[C@H](C)CCCC(C)C [Man1-C]
archaeosome formation upon hydration [5]: did not form readily

CC(C)CCC[C@@H](C)CCC[C@@H](C)CCC[C@@H](C)CCOC[C@H](CO[C@H]1O[C@H](CO)[C@@H](O)[C@H](O)[C@@H]1O[C@H]1O[C@H](CO)[C@@H](O)[C@H](O)[C@@H]1O)OCC[C@H](C)CCC[C@H](C)CCC[C@H](C)CCCC(C)C [Man2-C]
archaeosome formation upon hydration [5]: did not form readily

CC(C)CCC[C@@H](C)CCC[C@@H](C)CCC[C@@H](C)CCOC[C@H](CO[C@@H]1O[C@H](CO[C@@H]2O[C@H](CO[C@@H]3O[C@H](CO)[C@@H](O)[C@H](O)[C@H]3O)[C@@H](O)[C@H](O)[C@H]2O)[C@@H](O)[C@H](O)[C@H]1O)OCC[C@H](C)CCC[C@H](C)CCC[C@H](C)CCCC(C)C [gentiotriose-A]
protection from LM-OVA infection [6]: Best protection

CC(C)CCC[C@@H](C)CCC[C@@H](C)CCC[C@@H](C)CCOC[C@H](CO[C@@H]1O[C@H](CO[C@H]2O[C@H](CO)[C@@H](O)[C@H](O)[C@H]2O)[C@@H](O)[C@H](O)[C@H]1O)OCC[C@H](C)CCC[C@H](C)CCC[C@H](C)CCCC(C)C [isomaltose-A]
antibody responses, FIG. 7D ([2]; glyco-archaeol/DPPG/cholesterol (25/55/20, mol %), 6 weeks): quite strong
CD8+ T cell adjuvant activity, Elispot, FIG. 7C ([3]; 6 weeks): lower CD8^+ T cell responses
protection from LM-OVA infection [6]: less protective

CC(C)CCC[C@@H](C)CCC[C@@H](C)CCC[C@@H](C)CCOC[C@H](CO[C@@H]1O[C@H](CO)[C@@H](O[C@@H]2O[C@H](CO)[C@H](O)[C@H](O)[C@H]2O)[C@H](O)[C@H]1O)OCC[C@H](C)CCC[C@H](C)CCC[C@H](C)CCCC(C)C [lactose-archaeol]
CTL adjuvant activity, FIG. 7B [4]: strong

CC(C)CCC[C@@H](C)CCC[C@@H](C)CCC[C@@H](C)CCOC[C@H](CO[C@@H]1O[C@H](CO[C@H]2O[C@H](CO)[C@H](O)[C@H](O)[C@H]2O)[C@@H](O)[C@H](O)[C@H]1O)OCC[C@H](C)CCC[C@H](C)CCC[C@H](C)CCCC(C)C [melibiose-archaeol]
CTL adjuvant activity, FIG. 7B [4]: strong

Sulfonoquinovosyl diacylglycerol [SQDG]
antigen-specific CD8+ T cell response, Elispot, FIG. 10A [3]: Best activity

archaetidylglycerol [AG]
antigen-specific CD8+ T cell response, Elispot, FIG. 10A [3]: Best activity
CTL adjuvant activity, FIG. 3 ([4]; 15 μg OVA s.c. 0 and 3 weeks, spleens 7 weeks after first immunization): little ability to serve as adjuvants

archaetidylglycerophosphate-methyl [AGP-CH3]
antigen-specific CD8+ T cell response, Elispot, FIG. 10A [3]: Best activity

archaetidylinositol
antigen-specific antibody response, FIG. 10B [2]: favoured the antibody CD4^+ T cell response over the CD8^+ T cell response

B1: OVA (protein, UniProt P01012 2-386, looked up)
Ovalbumin: GSIGAASMEFCFDVFKELKVHHANENIFYCPIAIMSALAMVYLGAKDSTRTQINKVVRFDKLPGFGDSIEAQCGTSVNVHSSLRDILNQITKPNDVYSFSLASRLYAEERYPILPEYLQCVKELYRGGLEPINFQTAADQARELINSWVESQTNGIIRNVLQPSSVDSQTAMVLVNAIVFKGLWEKAFKDEDTQAMPFRVTEQESKPVQMMYQIGLFRVASMASEKMKILELPFASGTMSMLVLLPDEVSGLEQLESIINFEKLTEWTSSNVMEERKIKVYLPRMKMEEKYNLTSVLMAMGITDVFSSSANLSGISSAESLKISQAVHAAHAEINEAGREVVGSAEAGVDAASVSEEFRADHPFLFCIKHIATNAVLFFGRCVSP
numbers of mice that developed a solid tumor ([7]; 6 days from subcutaneous injection of B16OVA tumor cells): 2
numbers of mice that developed a solid tumor ([7]; 9 days from subcutaneous injection of B16OVA tumor cells): 3
numbers of mice that developed a solid tumor ([7]; 16 days from subcutaneous injection of B16OVA tumor cells): 4
numbers of mice that developed a solid tumor ([7]; 20 days from subcutaneous injection of B16OVA tumor cells): euthanized
